Patent publication EP0137212A2, “Ointment bases and ointments” (OTSUKA PHARMACEUTICAL CO., LTD., priority 1983, dated 1985)
Converted amounts (≈) assume the structure as drawn. Where two headings read alike, the source gives them in different places.

Experiments:
[1] = system: carrageenin-induced paw edema; assay: Inhibition of carrageenin-induced paw edema in rats; type: in vivo; conditions: 200 mg ointment (Ointment A / Ointment B) rubbed into right hind paw 1 and 2 hours before carrageenin
Procedure: After the ointment was applied to a rat's hind paw, carrageenin serving as a phlogogen was injected into the same hind paw, and the swelling caused by the phlogogen was measured. More specifically stated, the test was carried out as given below, using groups of 5 rats (weighing 175 g). First, the right hind paw of the rat was immersed in water, and the displacement was measured thereby giving the volume of hind paw. One and 2 hours before the injection of the phlogogen (carrageenin), 200 mg of the ointment was elaborately rubbed into the right hind paw of the rat, which was then wrapped in Saran Wrap (trademark) and covered with an elastic strip of adhesive plaster. Thereafter, 0.1 ml of a 1% solution of carrageenin was injected into the right hind paw, and the volume of the hind paw was hourly measured to determine the swelling (%) according to the following equation based on the volume thereof before the injection with the results shown in Fig. 1. [formula] wherein V0 is the volume of the right hind paw before the injection of carrageenin and V1 is the volume thereof after the injection of carrageenin.

Steroid Solubility Test = type: physicochemical
Procedure: This test was conducted to determine the maximum weight of Steroids A and B that could completely dissolve in 1 ml of various solvents at a temperature of 20°C.

Row | solubility (Steroid Solubility Test; organic solvent or mixture, solvent 1,3-Butanediol, 20°C, read-out: maximum weight that could completely dissolve in 1 ml of solvent) | solubility (Steroid Solubility Test; organic solvent or mixture, solvent 1,3-Dimethyl-2-imidazolidinone, 20°C, read-out: maximum weight that could completely dissolve in 1 ml of solvent) | solubility (Steroid Solubility Test; organic solvent or mixture, solvent Benzyl alcohol, 20°C, read-out: maximum weight that could completely dissolve in 1 ml of solvent) | solubility (Steroid Solubility Test; organic solvent or mixture, solvent Diethyl sebacate, 20°C, read-out: maximum weight that could completely dissolve in 1 ml of solvent) | solubility (Steroid Solubility Test; organic solvent or mixture, solvent Polyethylene glycol 400, 20°C, read-out: maximum weight that could completely dissolve in 1 ml of solvent) | solubility (Steroid Solubility Test; organic solvent or mixture, solvent Propylene glycol, 20°C, read-out: maximum weight that could completely dissolve in 1 ml of solvent) | SMILES | anti-inflammatory activity (swelling of hind paw, Fig. 1, in words) [1] | solubility (Steroid Solubility Test; 1,3-butanediol, organic solvent or mixture) | solubility (Steroid Solubility Test; 1,3-dimethyl-2-imidazolidinone, organic solvent or mixture) | solubility (Steroid Solubility Test; benzyl alcohol, organic solvent or mixture) | solubility (Steroid Solubility Test; diethyl sebacate, organic solvent or mixture) | solubility (Steroid Solubility Test; polyethylene glycol 400, organic solvent or mixture) | solubility (Steroid Solubility Test; propylene glycol, organic solvent or mixture)
1 | 1950 µg/mL (≈ 4.18 mM) | 357000 µg/mL (≈ 765 mM) | > 25000 µg/mL | 6850 µg/mL (≈ 14.7 mM) | 13300 µg/mL (≈ 28.5 mM) | 2700 µg/mL (≈ 5.78 mM) | CCOC(=O)O[C@]1(C(=O)OCCl)CC[C@H]2[C@@H]3CCC4=CC(=O)C=C[C@]4(C)[C@H]3[C@@H](O)C[C@@]21C [Steroid A, chloromethyl 17α-ethoxycarbonyloxy-11β-hydroxyandrosta-1,4-diene-3-one-17β-carboxylate] | exhibit an anti-inflammatory activity |  |  |  |  |  | 
2 |  |  |  |  |  |  | CCOC(=O)O[C@]1(C(=O)OCCl)[C@H](C)C[C@H]2[C@@H]3CCC4=CC(=O)C=C[C@]4(C)[C@@]3(F)[C@@H](O)C[C@@]21C [Steroid B, chloromethyl 17a-ethoxycarbonyloxy-9a-fluoro-11β-hydroxy-16α-methylandrosta-1,4-diene-3-one-17β-carboxylate] | exhibit an anti-inflammatory activity | 50 µg/mL (≈ 0.1 mM) | 52100 µg/mL (≈ 104 mM) | 920 µg/mL (≈ 1.84 mM) | 280 µg/mL (≈ 0.561 mM) | 450 µg/mL (≈ 0.902 mM) | 100 µg/mL (≈ 0.2 mM)
